pIC50: −log10 of the molar value. Entries after “also recorded” stand apart in the source; their conditions may differ.
Key:
[1] = biological target: tubulin polymerization in T. brucei cells (Trypanosoma brucei rhodesiense, UniProt P04106+P04107); assay type: cell-based; conditions: different doses, 7 hrs, western blot with TAT-1 antibody
[2] = tested on: T. b. brucei Lister 427 cells; assay: T. brucei cell viability analysis; assay type: cell-based; conditions: Trypanosoma brucei, 48 h, read-out: IC50 against T. brucei cells, bloodstream form T. b. brucei Lister 427, 48 hrs, MTS

tubulin polymerization in T. brucei cells, sequence (P04106 whole entry): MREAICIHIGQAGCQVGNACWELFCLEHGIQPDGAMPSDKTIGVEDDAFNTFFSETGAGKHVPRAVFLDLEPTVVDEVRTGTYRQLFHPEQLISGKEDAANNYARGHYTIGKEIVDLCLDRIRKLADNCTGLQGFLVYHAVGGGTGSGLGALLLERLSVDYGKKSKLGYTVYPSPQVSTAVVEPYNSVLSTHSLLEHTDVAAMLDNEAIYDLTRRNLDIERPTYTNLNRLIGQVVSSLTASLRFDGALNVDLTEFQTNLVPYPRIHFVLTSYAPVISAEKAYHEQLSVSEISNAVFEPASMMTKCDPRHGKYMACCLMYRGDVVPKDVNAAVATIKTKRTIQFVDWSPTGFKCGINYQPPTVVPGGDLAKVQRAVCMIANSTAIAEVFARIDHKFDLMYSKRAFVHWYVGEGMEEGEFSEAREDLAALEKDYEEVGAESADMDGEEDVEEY
tubulin polymerization in T. brucei cells, sequence (P04107 whole entry): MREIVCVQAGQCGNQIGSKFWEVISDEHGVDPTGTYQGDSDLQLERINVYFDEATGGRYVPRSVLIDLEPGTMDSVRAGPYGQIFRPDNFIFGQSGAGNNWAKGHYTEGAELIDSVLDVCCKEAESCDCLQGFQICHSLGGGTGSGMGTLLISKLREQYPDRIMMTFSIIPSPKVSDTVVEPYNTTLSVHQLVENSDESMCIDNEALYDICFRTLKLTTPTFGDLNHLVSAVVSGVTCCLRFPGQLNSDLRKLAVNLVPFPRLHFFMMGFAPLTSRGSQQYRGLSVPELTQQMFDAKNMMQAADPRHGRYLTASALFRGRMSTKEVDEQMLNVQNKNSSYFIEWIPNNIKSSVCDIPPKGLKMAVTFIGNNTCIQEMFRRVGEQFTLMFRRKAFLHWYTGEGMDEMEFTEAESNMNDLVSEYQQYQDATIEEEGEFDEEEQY

SMILES | amount of polymerized tubulin in T. brucei cells [1] | pIC50 [2]
CN(c1ccc(NC(=O)c2ccc(C#N)cc2)cc1OCc1ccc(C(F)(F)F)cc1)S(=O)(=O)Cc1ccccc1 [Compound 15, 4-cyano-N-(4-(N-methyl-1-phenylmethylsulfonamido)-3-((4-(trifluoromethyl)benzyl)oxy)phenyl)benzamide] | decreased the amount of polymerized tubulin in a dose-dependent manner; also recorded: level of polymerized tubulin is significantly decreased | –
CN(c1ccc(NC(=O)c2cc(C(F)(F)F)cc(C(F)(F)F)c2)cc1OCc1ccc(C(F)(F)F)cc1)S(=O)(=O)Cc1ccccc1 [Compound 11, N-(4-(N-methyl-1-phenylmethylsulfonamido)-3-((4-(trifluoromethyl)benzyl)oxy)phenyl)-3,5-bis(trifluor omethyl)benzamide] | – | > 5.30

— PMC5509440 (Bioorganic & medicinal chemistry, 2017)
